# Tested on: 883617-216-R-J1-PDC tumor spheroids, viability
# Assay: Anticancer human tumor 883617-216-R-J1-PDC patient-derived bladder carcinoma cell line growth inhibition [PI3K]
# Settings: spheroids with HUVEC and MSC; for IC50: curve of first compound; for viability, T/C: stronger effect = lower value
# Method in brief: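 Tumor cells were combined with HUVEC and MSCs into spheroids, then dosed with PI3K-inhibitor combinations over half-log ranges capped near clinical Cmax or 10 microM.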
# [1] = second compound 0.00316 µM, first compound 0.0316 µM
# [2] = second compound 0.00316 µM, first compound 0.1 µM
# [3] = second compound 0.00316 µM, first compound 0.316 µM
# [4] = second compound 0.00316 µM, first compound 1 µM
# [5] = second compound 0.00316 µM, first compound 3.16 µM
# [6] = second compound 0.00316 µM, first compound 10 µM
# [7] = second compound 0.01 µM, first compound 0.0316 µM
# [8] = second compound 0.01 µM, first compound 0.1 µM
# [9] = second compound 0.01 µM, first compound 0.316 µM
# [10] = second compound 0.01 µM, first compound 1 µM
# [11] = second compound 0.01 µM, first compound 3.16 µM
# [12] = second compound 0.01 µM, first compound 10 µM
# [13] = second compound 0.0316 µM, first compound 0.0316 µM
# [14] = second compound 0.0316 µM, first compound 0.1 µM
# [15] = second compound 0.0316 µM, first compound 0.316 µM
# [16] = second compound 0.0316 µM, first compound 1 µM
# [17] = second compound 0.0316 µM, first compound 3.16 µM
# [18] = second compound 0.0316 µM, first compound 10 µM
# [19] = second compound 0.1 µM, first compound 0.0316 µM
# [20] = second compound 0.1 µM, first compound 0.1 µM
# [21] = second compound 0.1 µM, first compound 0.316 µM
# [22] = second compound 0.1 µM, first compound 1 µM
# [23] = second compound 0.1 µM, first compound 3.16 µM
# [24] = second compound 0.1 µM, first compound 10 µM
# [25] = second compound 0.316 µM, first compound 0.0316 µM
# [26] = second compound 0.316 µM, first compound 0.1 µM
# [27] = second compound 0.316 µM, first compound 0.316 µM
# [28] = second compound 0.316 µM, first compound 1 µM
# [29] = second compound 0.316 µM, first compound 3.16 µM
# [30] = second compound 0.316 µM, first compound 10 µM
# [31] = second compound 1 µM, first compound 0.0316 µM
# [32] = second compound 1 µM, first compound 0.1 µM
# [33] = second compound 1 µM, first compound 0.316 µM
# [34] = second compound 1 µM, first compound 1 µM
# [35] = second compound 1 µM, first compound 3.16 µM
# [36] = second compound 1 µM, first compound 10 µM
# 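Also: spheroids exposed to agents for 7 days before the viability read.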
smiles,measurement,setting,value
CC1(C)CCC(CN2CCN(c3ccc(C(=O)NS(=O)(=O)c4ccc(NCC5CCOCC5)c([N+](=O)[O-])c4)c(Oc4cnc5[nH]ccc5c4)c3)CC2)=C(c2ccc(Cl)cc2)C1 + COc1c(OCCCN2CCOCC2)ccc2c3n(c(=NC(=O)c4cnc(N)nc4)nc12)CCN3,IC50,second compound 0.00316 µM,> 10000 nM
same,IC50,second compound 0.01 µM,> 10000 nM
same,IC50,second compound 0.0316 µM,< 31.6 nM
same,IC50,second compound 0.1 µM,< 31.6 nM
same,IC50,second compound 0.316 µM,< 31.6 nM
same,IC50,second compound 1 µM,< 31.6 nM
same,"viability, T/C",[1],86.9%
same,"viability, T/C",[2],84.3%
same,"viability, T/C",[3],77.5%
same,"viability, T/C",[4],83.7%
same,"viability, T/C",[5],82.7%
same,"viability, T/C",[6],110%
same,"viability, T/C",[7],68%
same,"viability, T/C",[8],67.9%
same,"viability, T/C",[9],66.5%
same,"viability, T/C",[10],68.5%
same,"viability, T/C",[11],66.1%
same,"viability, T/C",[12],58.2%
same,"viability, T/C",[13],32.3%
same,"viability, T/C",[14],35.8%
same,"viability, T/C",[15],40.5%
same,"viability, T/C",[16],39.1%
same,"viability, T/C",[17],35.3%
same,"viability, T/C",[18],35.5%
same,"viability, T/C",[19],27.5%
same,"viability, T/C",[20],15.1%
same,"viability, T/C",[21],17%
same,"viability, T/C",[22],17.8%
same,"viability, T/C",[23],15.2%
same,"viability, T/C",[24],13.1%
same,"viability, T/C",[25],6.5%
same,"viability, T/C",[26],4.66%
same,"viability, T/C",[27],5.31%
same,"viability, T/C",[28],5.04%
same,"viability, T/C",[29],4.63%
same,"viability, T/C",[30],4.02%
same,"viability, T/C",[31],3.29%
same,"viability, T/C",[32],2.86%
same,"viability, T/C",[33],2.77%
same,"viability, T/C",[34],3.15%
same,"viability, T/C",[35],2.53%
same,"viability, T/C",[36],2.82%
C[C@@H](NC(=O)c1ncnc(N)c1Cl)c1ncc(C(=O)Nc2cc(C(F)(F)F)c(Cl)cn2)s1 + COc1c(OCCCN2CCOCC2)ccc2c3n(c(=NC(=O)c4cnc(N)nc4)nc12)CCN3,IC50,second compound 0.00316 µM,> 10000 nM
same,IC50,second compound 0.01 µM,> 10000 nM
same,IC50,second compound 0.0316 µM,< 31.6 nM
same,IC50,second compound 0.1 µM,< 31.6 nM
same,IC50,second compound 0.316 µM,< 31.6 nM
same,IC50,second compound 1 µM,< 31.6 nM
same,"viability, T/C",[1],86.2%
same,"viability, T/C",[2],83.1%
same,"viability, T/C",[3],86.1%
same,"viability, T/C",[4],96%
same,"viability, T/C",[5],70.9%
same,"viability, T/C",[6],59.9%
same,"viability, T/C",[7],88.2%
same,"viability, T/C",[8],71.5%
same,"viability, T/C",[9],72.5%
same,"viability, T/C",[10],87.5%
same,"viability, T/C",[11],71.5%
same,"viability, T/C",[12],56.6%
same,"viability, T/C",[13],38.3%
same,"viability, T/C",[14],41.2%
same,"viability, T/C",[15],42.1%
same,"viability, T/C",[16],50.4%
same,"viability, T/C",[17],40.8%
same,"viability, T/C",[18],30.9%
same,"viability, T/C",[19],19%
same,"viability, T/C",[20],20.6%
same,"viability, T/C",[21],23.1%
same,"viability, T/C",[22],22%
same,"viability, T/C",[23],20.5%
same,"viability, T/C",[24],14.5%
same,"viability, T/C",[25],7.26%
same,"viability, T/C",[26],7.17%
same,"viability, T/C",[27],7.53%
same,"viability, T/C",[28],7.56%
same,"viability, T/C",[29],9.7%
same,"viability, T/C",[30],5.01%
same,"viability, T/C",[31],5.51%
same,"viability, T/C",[32],5.13%
same,"viability, T/C",[33],5.48%
same,"viability, T/C",[34],5.61%
same,"viability, T/C",[35],5.29%
same,"viability, T/C",[36],2.13%
